Assay results: ChEMBL document CHEMBL1201862, “PubChem BioAssay data set” (2004)
Activity calls are given as the source filed them.

Columns and labels:
Format in all cases: functional
[1] = biological target: Dual specificity mitogen-activated protein kinase kinase 2 (Homo sapiens, UniProt P36507); test: Navigating the Kinome. Panel member name: MAP2K2
[2] = biological target: Cyclin-dependent kinase 9 (Homo sapiens, UniProt P50750);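 note: value from the CDK9 entry of a kinome-spanning kinase panel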
[3] = biological target: Glycogen synthase kinase-3 alpha (Homo sapiens, UniProt P49840);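 note: GSK3A result taken from a broad kinome-wide kinase panel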
[4] = biological target: T1, Receptor-type tyrosine-protein kinase FLT3 (Homo sapiens, UniProt P36888);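 note: FLT3 was tested as one member of a kinome-wide kinase panel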
T1 sequence (P36888 whole entry): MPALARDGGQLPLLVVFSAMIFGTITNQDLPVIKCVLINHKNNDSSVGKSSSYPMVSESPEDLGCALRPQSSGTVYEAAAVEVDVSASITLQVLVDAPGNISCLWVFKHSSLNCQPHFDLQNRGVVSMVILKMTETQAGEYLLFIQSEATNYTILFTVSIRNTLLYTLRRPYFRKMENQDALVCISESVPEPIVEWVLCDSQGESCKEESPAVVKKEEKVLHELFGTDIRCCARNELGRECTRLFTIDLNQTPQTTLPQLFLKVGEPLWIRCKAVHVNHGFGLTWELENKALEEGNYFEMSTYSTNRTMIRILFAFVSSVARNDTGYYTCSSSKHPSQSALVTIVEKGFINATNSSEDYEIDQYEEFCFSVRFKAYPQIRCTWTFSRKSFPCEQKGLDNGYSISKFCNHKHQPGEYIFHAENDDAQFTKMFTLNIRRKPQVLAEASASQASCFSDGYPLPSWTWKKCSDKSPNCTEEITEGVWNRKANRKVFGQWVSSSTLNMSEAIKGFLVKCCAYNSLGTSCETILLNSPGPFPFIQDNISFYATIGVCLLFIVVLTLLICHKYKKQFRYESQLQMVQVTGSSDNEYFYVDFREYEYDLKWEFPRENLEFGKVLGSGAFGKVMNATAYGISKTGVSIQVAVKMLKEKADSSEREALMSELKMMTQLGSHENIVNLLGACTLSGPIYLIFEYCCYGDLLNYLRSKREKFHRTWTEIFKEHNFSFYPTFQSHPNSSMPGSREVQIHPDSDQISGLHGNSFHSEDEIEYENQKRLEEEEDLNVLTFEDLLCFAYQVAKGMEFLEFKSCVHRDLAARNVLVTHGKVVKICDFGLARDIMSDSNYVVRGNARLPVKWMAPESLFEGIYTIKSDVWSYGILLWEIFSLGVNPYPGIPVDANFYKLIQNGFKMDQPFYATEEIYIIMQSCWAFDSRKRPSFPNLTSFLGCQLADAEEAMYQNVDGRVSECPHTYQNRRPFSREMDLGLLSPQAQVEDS

[5] = biological target: T2, Aurora kinase A (Homo sapiens, UniProt O14965);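 note: value from the Navigating the Kinome kinase panel profiling, panel entry STK6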
T2 sequence (O14965 whole entry): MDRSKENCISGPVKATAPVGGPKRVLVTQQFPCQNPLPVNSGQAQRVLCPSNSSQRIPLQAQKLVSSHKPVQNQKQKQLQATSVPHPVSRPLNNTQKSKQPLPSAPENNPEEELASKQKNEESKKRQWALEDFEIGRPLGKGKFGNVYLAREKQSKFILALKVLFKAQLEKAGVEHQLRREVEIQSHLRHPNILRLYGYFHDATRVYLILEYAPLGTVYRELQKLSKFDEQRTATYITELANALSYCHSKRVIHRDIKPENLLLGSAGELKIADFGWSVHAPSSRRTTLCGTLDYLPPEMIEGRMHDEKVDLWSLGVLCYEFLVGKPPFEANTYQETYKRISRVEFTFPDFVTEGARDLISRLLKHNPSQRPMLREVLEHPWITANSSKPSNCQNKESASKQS

[6] = biological target: Cyclin-dependent kinase 7 (Homo sapiens, UniProt P50613);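 note: value comes from a kinome-wide kinase profiling panel in which CDK7 is one member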
[7] = biological target: LIM domain kinase 1 (Homo sapiens, UniProt P53667); test: Navigating the Kinome. Panel member name: LIMK1
[8] = biological target: ALK tyrosine kinase receptor (Homo sapiens, UniProt Q9UM73);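 note: ALK tested as one member of a kinase panel screen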
[9] = biological target: T3, Serine/threonine-protein kinase D3 (Homo sapiens, UniProt O94806);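 note: determined within a kinase panel screen, with PRKCN as the panel member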
T3 sequence (O94806 whole entry): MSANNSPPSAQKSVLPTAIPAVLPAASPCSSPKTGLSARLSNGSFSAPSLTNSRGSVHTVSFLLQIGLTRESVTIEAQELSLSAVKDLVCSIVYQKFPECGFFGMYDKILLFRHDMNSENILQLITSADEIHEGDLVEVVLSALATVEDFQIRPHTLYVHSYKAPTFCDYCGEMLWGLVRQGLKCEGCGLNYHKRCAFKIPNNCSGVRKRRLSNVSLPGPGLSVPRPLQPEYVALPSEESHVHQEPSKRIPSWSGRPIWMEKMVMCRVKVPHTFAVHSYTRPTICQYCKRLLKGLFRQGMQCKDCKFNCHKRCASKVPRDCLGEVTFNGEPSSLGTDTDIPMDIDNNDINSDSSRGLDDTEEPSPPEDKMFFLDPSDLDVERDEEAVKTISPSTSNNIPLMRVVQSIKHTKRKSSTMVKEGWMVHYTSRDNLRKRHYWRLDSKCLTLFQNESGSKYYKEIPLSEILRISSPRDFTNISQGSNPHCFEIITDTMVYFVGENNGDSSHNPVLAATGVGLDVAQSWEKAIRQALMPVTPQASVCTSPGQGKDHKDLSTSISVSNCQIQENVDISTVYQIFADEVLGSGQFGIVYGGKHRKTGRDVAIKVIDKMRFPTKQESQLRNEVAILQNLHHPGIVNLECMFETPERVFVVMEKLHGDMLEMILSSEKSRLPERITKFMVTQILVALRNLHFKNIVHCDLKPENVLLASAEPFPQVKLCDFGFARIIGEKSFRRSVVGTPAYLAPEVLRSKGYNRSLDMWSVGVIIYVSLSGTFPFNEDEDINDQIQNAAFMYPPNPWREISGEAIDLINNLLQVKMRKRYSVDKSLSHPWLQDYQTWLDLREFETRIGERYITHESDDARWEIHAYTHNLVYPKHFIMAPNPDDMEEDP

Sequence of Cyclin-dependent kinase 9 (P50750 whole entry): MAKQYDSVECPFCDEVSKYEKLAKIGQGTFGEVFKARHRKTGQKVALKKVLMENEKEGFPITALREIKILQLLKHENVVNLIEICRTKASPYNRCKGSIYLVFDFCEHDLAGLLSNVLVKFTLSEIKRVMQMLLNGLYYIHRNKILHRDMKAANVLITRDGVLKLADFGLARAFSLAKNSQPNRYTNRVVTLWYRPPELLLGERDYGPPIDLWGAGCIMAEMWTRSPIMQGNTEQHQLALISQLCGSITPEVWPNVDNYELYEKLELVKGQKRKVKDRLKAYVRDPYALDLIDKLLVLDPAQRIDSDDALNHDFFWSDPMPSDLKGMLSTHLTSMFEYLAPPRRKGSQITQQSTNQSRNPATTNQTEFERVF
Sequence of Cyclin-dependent kinase 7 (P50613 whole entry, the tested form may be a part): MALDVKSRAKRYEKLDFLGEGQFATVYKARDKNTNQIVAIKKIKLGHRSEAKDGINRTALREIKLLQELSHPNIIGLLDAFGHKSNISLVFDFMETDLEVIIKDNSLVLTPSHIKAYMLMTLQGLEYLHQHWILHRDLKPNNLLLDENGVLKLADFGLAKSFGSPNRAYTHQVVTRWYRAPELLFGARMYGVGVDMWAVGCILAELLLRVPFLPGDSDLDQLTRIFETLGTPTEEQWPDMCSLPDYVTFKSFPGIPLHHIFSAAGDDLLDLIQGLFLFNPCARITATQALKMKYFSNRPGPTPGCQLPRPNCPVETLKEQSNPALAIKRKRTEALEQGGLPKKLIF
Sequence of LIM domain kinase 1 (P53667 whole entry, the tested form may be a part): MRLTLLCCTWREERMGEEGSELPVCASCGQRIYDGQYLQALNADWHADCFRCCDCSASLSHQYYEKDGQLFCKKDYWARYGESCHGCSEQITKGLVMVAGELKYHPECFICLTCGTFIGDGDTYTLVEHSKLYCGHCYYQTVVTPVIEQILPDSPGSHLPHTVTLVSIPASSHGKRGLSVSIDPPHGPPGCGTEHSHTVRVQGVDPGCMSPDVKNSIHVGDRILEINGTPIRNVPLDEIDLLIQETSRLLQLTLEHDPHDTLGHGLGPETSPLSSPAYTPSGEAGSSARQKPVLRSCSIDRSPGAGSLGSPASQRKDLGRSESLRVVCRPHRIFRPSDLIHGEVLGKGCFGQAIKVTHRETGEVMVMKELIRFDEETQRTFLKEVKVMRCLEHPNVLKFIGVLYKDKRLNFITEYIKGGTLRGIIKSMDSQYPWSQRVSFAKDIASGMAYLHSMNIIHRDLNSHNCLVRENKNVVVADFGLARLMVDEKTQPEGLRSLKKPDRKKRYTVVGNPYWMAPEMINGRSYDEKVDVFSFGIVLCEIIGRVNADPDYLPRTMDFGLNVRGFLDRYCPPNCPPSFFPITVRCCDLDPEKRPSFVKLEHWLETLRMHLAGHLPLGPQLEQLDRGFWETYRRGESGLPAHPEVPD
Sequence of ALK tyrosine kinase receptor (Q9UM73 whole entry): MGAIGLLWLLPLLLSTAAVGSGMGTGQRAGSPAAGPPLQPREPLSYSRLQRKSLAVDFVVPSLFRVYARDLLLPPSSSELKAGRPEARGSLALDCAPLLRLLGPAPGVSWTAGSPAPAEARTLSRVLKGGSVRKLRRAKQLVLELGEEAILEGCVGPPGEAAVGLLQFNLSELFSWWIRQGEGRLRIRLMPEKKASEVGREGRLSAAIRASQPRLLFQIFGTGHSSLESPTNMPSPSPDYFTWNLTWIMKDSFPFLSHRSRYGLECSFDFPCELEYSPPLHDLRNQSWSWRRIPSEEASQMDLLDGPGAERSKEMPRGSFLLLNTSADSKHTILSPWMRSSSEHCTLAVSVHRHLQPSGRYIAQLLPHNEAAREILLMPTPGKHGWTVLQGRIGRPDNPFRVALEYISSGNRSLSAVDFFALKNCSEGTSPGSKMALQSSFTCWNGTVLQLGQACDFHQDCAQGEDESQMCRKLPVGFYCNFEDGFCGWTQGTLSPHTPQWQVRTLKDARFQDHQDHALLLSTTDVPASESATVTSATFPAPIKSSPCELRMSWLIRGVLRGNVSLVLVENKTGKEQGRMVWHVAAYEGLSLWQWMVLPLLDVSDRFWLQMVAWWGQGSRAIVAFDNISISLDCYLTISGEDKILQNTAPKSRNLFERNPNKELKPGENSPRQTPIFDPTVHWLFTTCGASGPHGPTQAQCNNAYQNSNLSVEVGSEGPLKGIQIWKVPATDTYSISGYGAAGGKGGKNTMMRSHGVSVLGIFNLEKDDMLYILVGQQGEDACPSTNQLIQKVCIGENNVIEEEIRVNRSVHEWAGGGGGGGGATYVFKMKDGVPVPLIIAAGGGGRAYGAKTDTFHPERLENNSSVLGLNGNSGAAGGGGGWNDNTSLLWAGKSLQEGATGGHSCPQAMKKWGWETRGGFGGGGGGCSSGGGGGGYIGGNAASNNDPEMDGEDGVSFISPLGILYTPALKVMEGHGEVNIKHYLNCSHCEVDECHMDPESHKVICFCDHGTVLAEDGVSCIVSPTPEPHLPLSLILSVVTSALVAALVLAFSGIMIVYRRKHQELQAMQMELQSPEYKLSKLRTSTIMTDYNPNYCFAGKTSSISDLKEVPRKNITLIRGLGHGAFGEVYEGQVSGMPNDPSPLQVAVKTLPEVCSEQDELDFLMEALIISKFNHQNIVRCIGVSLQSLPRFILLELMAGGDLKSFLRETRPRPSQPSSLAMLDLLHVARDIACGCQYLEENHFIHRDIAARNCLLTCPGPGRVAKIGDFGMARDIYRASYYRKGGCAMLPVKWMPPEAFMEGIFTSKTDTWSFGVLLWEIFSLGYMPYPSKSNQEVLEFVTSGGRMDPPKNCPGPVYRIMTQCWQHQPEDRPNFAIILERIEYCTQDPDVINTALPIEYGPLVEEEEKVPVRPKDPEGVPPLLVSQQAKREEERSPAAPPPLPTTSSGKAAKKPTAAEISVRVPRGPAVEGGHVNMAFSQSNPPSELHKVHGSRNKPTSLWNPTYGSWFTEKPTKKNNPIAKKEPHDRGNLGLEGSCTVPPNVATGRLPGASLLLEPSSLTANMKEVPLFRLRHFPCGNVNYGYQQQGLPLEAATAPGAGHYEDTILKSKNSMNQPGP
Sequence of Glycogen synthase kinase-3 alpha (P49840 whole entry): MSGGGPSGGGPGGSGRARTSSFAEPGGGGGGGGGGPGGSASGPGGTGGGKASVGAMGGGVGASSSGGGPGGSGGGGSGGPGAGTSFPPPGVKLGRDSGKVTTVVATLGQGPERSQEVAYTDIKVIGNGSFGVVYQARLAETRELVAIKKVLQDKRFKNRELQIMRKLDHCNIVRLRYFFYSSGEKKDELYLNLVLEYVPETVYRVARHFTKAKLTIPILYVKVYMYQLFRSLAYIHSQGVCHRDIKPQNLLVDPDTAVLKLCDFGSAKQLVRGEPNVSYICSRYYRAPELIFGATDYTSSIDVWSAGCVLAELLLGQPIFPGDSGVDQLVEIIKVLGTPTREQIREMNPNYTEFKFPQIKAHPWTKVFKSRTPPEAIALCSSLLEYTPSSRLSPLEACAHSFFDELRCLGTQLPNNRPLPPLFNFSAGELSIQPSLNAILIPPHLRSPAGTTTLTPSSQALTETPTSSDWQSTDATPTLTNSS
Sequence of Dual specificity mitogen-activated protein kinase kinase 2 (P36507 whole entry): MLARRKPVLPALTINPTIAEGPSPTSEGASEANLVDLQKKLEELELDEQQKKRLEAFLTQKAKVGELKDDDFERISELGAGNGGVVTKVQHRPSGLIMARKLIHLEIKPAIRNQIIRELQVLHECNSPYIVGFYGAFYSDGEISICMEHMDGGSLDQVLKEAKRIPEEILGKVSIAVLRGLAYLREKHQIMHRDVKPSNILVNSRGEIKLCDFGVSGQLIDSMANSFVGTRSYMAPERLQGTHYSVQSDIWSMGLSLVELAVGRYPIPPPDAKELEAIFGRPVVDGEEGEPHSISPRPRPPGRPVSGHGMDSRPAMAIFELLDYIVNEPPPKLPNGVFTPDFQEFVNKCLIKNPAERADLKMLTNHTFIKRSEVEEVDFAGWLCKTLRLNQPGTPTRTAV

Ki [1] | Ki [2] | Ki [3] | Ki [4] | Ki [5] | Ki [6] | Ki [7] | Ki [8] | Ki [9] | Compound
316 nM (active) | 158 nM (active) | 1.26 nM (active) | 25.1 nM (active) | 251 nM (active) | 10 nM (active) | 501 nM (active) | 200 nM (active) | 15.8 nM (active) | NC(COc1cncc(-c2ccc3c(c2)C(=Cc2ccc[nH]2)C(=O)N3)c1)Cc1ccccc1 (configuration not stated)
50100 nM (active) | 15800 nM (active) | 15800 nM (active) | 79400 nM (active) | 20000 nM (active) | 39800 nM (active) | 63100 nM (active) | 63100 nM (active) | 63100 nM (active) | O=C1Cc2cc(-c3ccccc3)cnc2N1
> 3980 nM (inactive) | 79.4 nM (active) | 631 nM (active) | > 3160 nM (inactive) | > 1580 nM (inactive) | > 3980 nM (inactive) | 2510 nM (active) | 12.6 nM (active) | > 3980 nM (inactive) | O=C1Nc2cc(-c3ccc(O)cc3)ccc2C1=Cc1ccc[nH]1
